From patent US6451812B1, “Farnesyl protein transferase inhibitors for treating arthropathies” (Janssen Pharmaceutica N.V., priority 1998, dated 2002)
Like-named read-outs stand apart in the source and are kept apart here.

Assays:
DBA1/J mice = test: Collagen type II induced arthritis, prophylactic treatment (Example 1); assay type: in vivo; conditions: for Ankylosis score / Incidence of ankylosis (% of animals affected) / Incidence of arthritis (% of animals affected) / Mean Arthritic Score / Mean number of affected paws: 100 mpk (2 ×) orally, treated day 20-36
Experimental: Male DBA1/J mice were immunized intradermally with collagen type II emulsified in complete Freund's Adjuvant on day 0 and day 21. Treatment of mice was started on day 20 (10 animals/treatment group). Mice were treated orally twice daily (6 hours time interval) with vehicle [DMSO: cremophor: 0.9% NaCl solution, 1:1:8 (v:v:v)] or compound 75 at a dose of 100 mg/kg. Three times per week symptoms of arthritis were scored. Animals were treated till day 36, at day 37 animals were sacrificed, blood was collected for analysis of anti-collagen antibodies, radiographs were made and paws were fixed for histological evaluation. […] Trained lab personnel evaluated the severity and incidence of the arthritic symptoms at regular intervals without knowing which animals had received vehicle or drug.
In Table 9, the mean arthritic score is shown. For each paw, a score ranging from 0 (normal) to 2 (maximal redness and swelling) is given. The score for the 4 paws is summed up and averaged for the 10 animals per group (=Mean arthritic score).
Table 11 summarizes the results of the observations for the occurrence of ankylosis as the arthritis progresses. Each paw is scored as follows: 0 for no ankylosis, 1 for ankylosis. Again the results for the four paws are summed up and averaged for the 10 animals. At the end of the experiment, the ankylosis score in the vehicle group (3.1) is clearly higher than that in the group treated with Compound 75 (1.2).

Lewis rats = assay type: in vivo; conditions: for % change in body-weight #<−21% / % change in body-weight #>10% / % change in body-weight Mean: day 14-21, 6 animals; for % change in swelling Mean / % change in swelling #<80% / % change in swelling #>170% / % change in swelling #>150%: paw swelling day 21 as % of day 14, 6 animals; for % change in swelling #<80%: criterion for anti-inflammatory activity; for % change in swelling #>170%: pro-inflammatory activity; for % change in swelling #>150%: tendency towards pro-inflammatory activity
Experimental: Male SPF-breeded Lewis rats (Charles River; 225-275 g) were housed in individual cages under standard laboratory conditions (21±2° C.; 65±15% relative humidity; light-dark cycle set at 12 h). Mycobacterium butyricum (heat-killed and suspended in paraffin oil at 5 mg/ml; 0.05 ml) was inoculated intradermally at the tail base of the rats. On day 14 after inoculation, the diameters (Ø) of the hind paws and tibiotarsal joints (ΣØ14) were compared with the initial diameters (ΣØ0) and rats with a significant swelling (ΔØ14-0≧6.0 mm) were assigned to the various treatment groups (n=6; […]).
Body weight and paw diameters were measured at days 14 and after 1-week treatment at day 21. Diet consumption was also measured and the number of dead animals on day 21 was noted. Paw swelling at day 21 was expressed as a percentage of the initial inflammation at the start of the treatment (day 14). Control animals were included in each experimental session. Test compounds were administered via a medicated diet. For that purpose, compounds were mixed with ground pellets in proportion to give an approximate daily dose. This medicated diet was administered ad libitum during the experimental period. The real dose was calculated by multiplying the consumed amount of diet with the concentration of the test compound in the diet.
Based on a frequency distribution of a series of control data (n=181), all-or-nothing criteria for drug-induced effects were established. The averaged body weight change during the 1 week experimental period in the control population was a decrease of 7 g. […] In the same set of control animals, paw swelling at day 21 was on the average 117% of the initial value at day 14.

[1] = 100 mg/kg orally twice daily, day 20-36
[2] = 100 mg/kg orally twice daily, versus vehicle
[3] = dose 40 mg/kg via medicated diet
[4] = dose 80 mg/kg via medicated diet
[5] = dose 160 mg/kg via medicated diet

Cn1cncc1C(N)(c1ccc(Cl)cc1)c1ccc2c(c1)c(-c1cccc(Cl)c1)cc(=O)n2C (single isomer, unassigned; (+)) [Compound 75, (+)-6-[amino(4-chlorophenyl)(1-methyl-1H-imidazol-5-yl)methyl]-4-(3-chlorophenyl)-1-methyl-2(1H)-quinolinone]
lethalities (DBA1/J mice; [1]): no lethalities were observed | signs of toxicity (DBA1/J mice; [1]): did not show any signs of toxicity | effect on mean arthritic score (in words) (DBA1/J mice; [2]): clearly suppresses the arthritic score | effect on mean number of affected paws (in words) (DBA1/J mice; [2]): reduces that number | effect on mean arthritic score (in words) (DBA1/J mice; 100 mg/kg orally twice daily, versus vehicle, listed as compound 75): reduces the mean arthritic score | incidence of ankylosis (DBA1/J mice; 100 mg/kg orally twice daily, summary in text of Table 12): 60% | Ankylosis score (DBA1/J mice; day 22 after immunization): 0.00 | Incidence of ankylosis (% of animals affected) (DBA1/J mice; day 22 after immunization): 0% | Incidence of arthritis (% of animals affected) (DBA1/J mice; day 22 after immunization): 0% | Mean Arthritic Score (DBA1/J mice; day 22 after immunization): 0.00 | Mean number of affected paws (DBA1/J mice; day 22 after immunization): 0.00 | Ankylosis score (DBA1/J mice; day 24 after immunization): 0.00 | Incidence of ankylosis (% of animals affected) (DBA1/J mice; day 24 after immunization): 0% | Incidence of arthritis (% of animals affected) (DBA1/J mice; day 24 after immunization): 20% | Mean Arthritic Score (DBA1/J mice; day 24 after immunization): 0.05 | Mean number of affected paws (DBA1/J mice; day 24 after immunization): 0.20 | Ankylosis score (DBA1/J mice; day 27 after immunization): 0.30 | Incidence of ankylosis (% of animals affected) (DBA1/J mice; day 27 after immunization): 10% | Incidence of arthritis (% of animals affected) (DBA1/J mice; day 27 after immunization): 40% | Mean Arthritic Score (DBA1/J mice; day 27 after immunization): 0.60 | Mean number of affected paws (DBA1/J mice; day 27 after immunization): 0.80 | Ankylosis score (DBA1/J mice; day 29 after immunization): 0.80 | Incidence of ankylosis (% of animals affected) (DBA1/J mice; day 29 after immunization): 50% | Incidence of arthritis (% of animals affected) (DBA1/J mice; day 29 after immunization): 80% | Mean Arthritic Score (DBA1/J mice; day 29 after immunization): 0.90 | Mean number of affected paws (DBA1/J mice; day 29 after immunization): 1.30 | Ankylosis score (DBA1/J mice; day 31 after immunization): 1.10 | Incidence of ankylosis (% of animals affected) (DBA1/J mice; day 31 after immunization): 50% | Incidence of arthritis (% of animals affected) (DBA1/J mice; day 31 after immunization): 70% | Mean Arthritic Score (DBA1/J mice; day 31 after immunization): 1.03 | Mean number of affected paws (DBA1/J mice; day 31 after immunization): 1.70 | Ankylosis score (DBA1/J mice; day 34 after immunization): 1.20 | Incidence of ankylosis (% of animals affected) (DBA1/J mice; day 34 after immunization): 50% | Incidence of arthritis (% of animals affected) (DBA1/J mice; day 34 after immunization): 60% | Mean Arthritic Score (DBA1/J mice; day 34 after immunization): 0.80 | Mean number of affected paws (DBA1/J mice; day 34 after immunization): 1.20 | Ankylosis score (DBA1/J mice; day 36 after immunization): 1.40 | Incidence of ankylosis (% of animals affected) (DBA1/J mice; day 36 after immunization): 60% | Incidence of arthritis (% of animals affected) (DBA1/J mice; day 36 after immunization): 70% | Mean Arthritic Score (DBA1/J mice; day 36 after immunization): 0.75 | Mean number of affected paws (DBA1/J mice; day 36 after immunization): 1.30 | Ankylosis score (DBA1/J mice; day 37 after immunization (end of the experiment), 100 mg/kg): 1.2 | Incidence of ankylosis (% of animals affected) (DBA1/J mice; day 37 after immunization): 60% | Incidence of arthritis (% of animals affected) (DBA1/J mice; day 37 after immunization): 60% | Mean Arthritic Score (DBA1/J mice; day 37 after immunization): 0.80 | Mean number of affected paws (DBA1/J mice; day 37 after immunization): 1.30 | % change in body-weight #<−21% (Lewis rats; [3]): 0 number of animals | % change in body-weight #>10% (Lewis rats; [3]): 0 number of animals | % change in body-weight Mean (Lewis rats; [3]): −9% | % change in swelling Mean (Lewis rats; [3]): 94% | % change in swelling #<80% (Lewis rats; [3]): 0 number of animals | % change in swelling #>170% (Lewis rats; [3]): 0 number of animals | % change in swelling #>150% (Lewis rats; [3]): 0 number of animals | % change in body-weight #<−21% (Lewis rats; [4]): 4 number of animals | % change in body-weight #>10% (Lewis rats; [4]): 0 number of animals | % change in body-weight Mean (Lewis rats; [4]): −19% | % change in swelling Mean (Lewis rats; [4]): 86% | % change in swelling #<80% (Lewis rats; [4]): 3 number of animals | % change in swelling #>170% (Lewis rats; [4]): 0 number of animals | % change in swelling #>150% (Lewis rats; [4]): 0 number of animals | % change in body-weight #<−21% (Lewis rats; [5]): 4 number of animals | % change in body-weight #>10% (Lewis rats; [5]): 0 number of animals | % change in body-weight Mean (Lewis rats; [5]): −24% | % change in swelling Mean (Lewis rats; [5]): 79% | % change in swelling #<80% (Lewis rats; [5]): 3 number of animals | % change in swelling #>170% (Lewis rats; [5]): 0 number of animals | % change in swelling #>150% (Lewis rats; [5]): 0 number of animals
